One data set has as its system KB cells. The experiment in a line: Cytotoxicity in KB cells, growth over two population doublings. The format is cell-based. As for the experimental part:
(§1) Cells and viruses. The routine growth and passage of KB cells was performed in monolayer cultures using minimal essential medium (MEM) with either Hanks salts [MEM(H)] or Earle salts [MEM(E)] supplemented with 10% calf serum. The sodium bicarbonate concentration was varied to meet the buffering capacity required. Cultures of diploid human foreskin fibroblasts (HFF) or MRC-5 cells were grown in medium consisting of MEM(E) with 10% fetal bovine serum. Cells were passaged at 1:2 to 1:10 dilutions according to conventional procedures by using 0.05% trypsin plus 0.02% EDTA in a HEPES buffered salt solution (HBS) (Shipman, C., Jr., Proc. Soc. Exp. Biol. 130:305-310 (1969)) as described previously. Turk, S. R., et al., Antimicrob. Agents Chemother. 31:544-550 (1987). HFF and MRC-5 cells were passaged only at 1:2 dilutions. CEM cells were maintained in suspension culture as detailed previously. Kucera, L. S., et al., AIDS Res. Human Retroviruses 9:307-314 (1993).
(§2) Cytotoxicity assays. Two different assays were used to explore cytotoxicity of selected compounds as we have detailed previously. (i) Cytotoxicity produced in stationary HFF cells and in growing CEM cells was determined by microscopic inspection of cells used in plaque and RT assays which were not affected by the virus. Turk, S. R., et al., Antimicrob. Agents Chemother. 31:544-550 (1987). (ii) The effect of compounds during two population doublings of KB cells was determined by crystal violet staining and spectrophotometric quantitation of dye eluted from stained cells. Prichard, M. N., et al., Antimicrob. Agents Chemother. 35:1060-1065 (1991).
(§3) Data Analysis. Dose-response relationships were constructed by linearly regressing the percent inhibition of parameters derived in the preceding sections against log drug concentrations. Fifty-percent inhibitory (IC50) concentrations were calculated from the regression lines. Samples containing positive controls (acyclovir for HSV-1, ganciclovir for HCMV, and 2-acetylpyridine thiosemicarbazone for cytotoxicity) were used in all assays.

In another data set the test system is HFF cells. The experiment in a line: Cytotoxicity in stationary HFF cells, microscopic inspection. It counts as cell-based, human. As for the experimental part:
as §1, §2, §3

The subject of a further data set is HSV-1. The experiment in a line: HSV-1 ELISA in BSC-1 cells. It counts as cell-based, herpes simplex 1 (HSV-1). The following applies: ELISA. As to the method: (§4) Virological procedures. Stock HCMV was prepared by infecting HFF cells at a multiplicity of infection (m.o.i.) of <0.01 plaque-forming units (p.f.u.) per cell. Cell growth medium was changed every four days until cytopathology was evident in all cells (approximately 21 days). Supernatant fluids were retained as the virus stock. High titer HSV-1 stocks were prepared by infecting KB cells at an m.o.i. of <0.1 as detailed previously. Turk, S. R., et al., Antimicrob. Agents Chemother. 31:544-550 (1987). Virus titers were determined using monolayer cultures of HFF cells for HCMV and monolayer cultures of BSC-1 cells for HSV-1 as described earlier. Prichard, M. N., et al., J. Virol. Methods 28:101-106 (1990). Briefly, HFF or BSC-1 cells were planted as described above in 96-well cluster dishes and incubated overnight at 37° C. in a humidified 3% CO297% air atmosphere. The next day cultures were inoculated with HCMV or HSV-1 and serially diluted 1:3 across the remaining eleven columns of the 96-well plate. Cultures were incubated at 37° C. for 2 hr to permit virus adsorption and then virus inoculum was replaced with 0.2 mL of fresh medium. Cultures were incubated for seven days for HCMV, two or three days for HSV-1, medium was removed, and the cell sheets were stained with 0.1% crystal violet in 20% methanol. Plaques were enumerated under 20-fold magnification in wells having the dilution which gave 5 to 20 plaques per well. Virus titers were calculated according to the following Formula: Titer (p.f.u./mL)=number of plaques×5×3^n; where n represents the nth dilution of the virus used to infect the well in which plaques were enumerated.
(b) HSV-1. An enzyme-linked immunosorbent assay (ELISA) was employed to detect HSV-1. 96-well cluster dishes were planted with BSC-1 cells at 10,000 cells per well, in a total volume of 200 μL per well of MEM(E) plus 10% calf serum. After overnight incubation at 37° C., drug and HSV-1 was added at the rate of 100 PFU/well. ELISA plates were blocked with 200 μL per well of 10% calf serum and 0.05% tween in HBS. After incubation for 30 minutes, the blocking agent was rinsed two times with HBS-T. A 1:400 dilution of AP conjugated rabbit anti-HSV-1 antibody in HBS-F was added. Plates were sealed with adhesive sheet, and incubated on rocker for one hour at 37° C. Plates were developed in the dark with 100 μL per well of substrate solution containing p-nitrophenyl phosphate. Plates were read at […]. Drug effects were calculated as a percentage of the reduction in virus in the presence of each drug concentration compared to the titer obtained in the absence of drug. Acyclovir was used as a positive control in all experiments.
as §3

Data set [1] has as its system HCMV. The experiment in a line: HCMV plaque reduction assay in HFF cells. The format is cell-based, Human CMV (HCMV). The following applies: for IC50: HFF cells, plaque reduction. As for the experimental part: as §1, §4
(a) HCMV. The effect of compounds on the replication of HCMV has been measured using a plaque reduction assay. HFF cells in 24-well cluster dishes were infected with approximately 100 p.f.u. of HCMV per cm^2 cell sheet using the procedures detailed above. Following virus adsorption, compounds dissolved in growth medium were added to duplicate wells in three to six selected concentrations. Following incubation at 37° C. for 7 to 10 days, cell sheets were fixed, stained with crystal violet and microscopic plaques enumerated as described above. Drug effects were calculated as a percentage of reduction in number of plaques in the presence of each drug concentration compared to the number observed in the absence of drug. Ganciclovir (DHPG) was used as a positive control in all experiments.
as §3

A further data set has as its system CEM cells. The experiment in a line: Cytotoxicity in growing CEM cells, microscopic inspection. The format is cell-based. As to the method: as §1, §2, §3
Data set [2] has as its system HCMV. The experiment in a line: HCMV yield reduction assay in HFF cells. The following applies: footnote says IC90. The format is cell-based, Human CMV (HCMV). As to the method:
as §4
The effect of compounds on the replication of HCMV also was measured using a yield reduction assay. HFF cells were planted as described above in 96-well cluster dishes, incubated overnight, medium removed and the cultures were inoculated with HCMV at a m.o.i. of 0.5 to 1 p.f.u. per cell as reported elsewhere. After virus adsorption, inoculum was replaced with 0.2 mL of fresh medium containing test compounds. The first row of 12 wells was left undisturbed and served as virus controls. Each well in the second row received an additional 0.1 mL of medium with test compound at three times the desired final concentration. The contents of the 12 wells were mixed by repeated pipetting and then serially diluted 1:3 along the remaining wells. In this manner, six compounds could be tested in duplicate on a single plate with concentrations from 100 μM to 0.14 μM. Plates were incubated at 37° C. for seven days, subjected to one cycle of freezing and thawing; aliquots from each of the eight wells of a given column were transferred to the first column of a fresh 96-well monolayer culture of HFF cells. Contents were mixed and serially diluted 1:3 across the remaining eleven columns of the secondary plate. Each column of the original primary plate was diluted across a separate plate in this manner. Cultures were incubated, plaques were enumerated, and titers calculated as described above.
as §3

Another data set relates to HIV-1. The data set is described as follows: HIV-1 reverse transcriptase assay in infected CEM cells. It counts as cell-based, strain IIIB of HIV-1. As to the method:
(d) HIV-1. Reverse transcriptase (RT) was employed as a marker for HIV-1. This assay measured the presence of HIV in supernatants of CEM cells infected with strain IIIB of HIV-1 by the amount of RT activity. Cells were grown, infected, and incubated in the presence of seven concentrations (one-half log10 dilutions) beginning at 1 or 100 μM of compounds to be assayed. Procedures and the RT assay were performed as detailed previously. Kucera, L. S., et al., AIDS Res. Human Retroviruses 9:307-314 (1993); White, E. L., et al., Antiviral Res. 16:257-266 (1991).

Data set [3] can be described thus: Toxicity controls: uninfected mice given test compound. The format is in vivo. The following applies: 5.6, 16.7 and 50 mg/kg i.p. once daily for five days. As to the method: (§5) Compounds 1 (B=adenin-N^9-yl and guanin-N^9-yl) were evaluated in mice infected with murine cytomegalovirus (MCMV). Mice were infected intraperitonealy with sufficient MCMV to produce 90 to 100% mortality. Compounds were administered once daily for five days at doses of 5.6, 16.7 and 50 mg/kg by intraperitoneal injection in a 0.4% suspension of carboxymethylcellulose. Ganciclovir was administered in sterile water at the same doses as a positive control drug. All compounds were administered to separate groups of 15 mice each at 6, 24, and 48 hours after infection with MCMV. Groups of 10 uninfected mice also received test compounds as toxicity controls at the doses listed above.

In data set [4] the test system is murine cytomegalovirus (MCMV). The data set is described as follows: Mortality of mice infected with murine cytomegalovirus. It counts as in vivo. The following applies: 5.6 mg/kg. As for the experimental part:
as §5

The mark [5] stands for this setting: reverse transcriptase assay, CEM cells, low moi (footnote c of the 5th table), read-out: HIV-1, IC50.
Where [6] appears, read: Example 26, high multiplicity of infection (moi), read-out: HIV-1 IC50, reverse transcriptase assay.

Read-outs that look alike come from different tables or passages of the source.

Turning to `Nc1nc(N)c2ncn(C=C3CC3CO)c2n1` (stereo not drawn) [1 (B = 2,6-diaminopurine), Example 9, syn-2,6-Diamino-N^9-(2-hydroxymethylcyclopropylidenemethyl)purine], the IC50 with KB cells was above 100 µM; in the data set with HFF cells it was above 100 µM; with HSV-1 (BSC-1 cells) it was above 100 µM; in the data set on HCMV [1], 15 µM; in the data set with CEM cells, above 100 µM. Also, the IC90 in the data set on HCMV [2] worked out at 18 µM.

Take `Nc1ccn(C=C2CC2CO)c(=O)n1` (stereo not drawn) [1 (B = cytosine), Example 12, syn-N^1-(2-Hydroxymethylcyclopropylidenemethyl)cytosine]: the IC50 with KB cells is above 100 µM; with HFF cells, above 100 µM; in the data set with HSV-1 (BSC-1 cells) it was above 100 µM; with HCMV [1], 28 µM; with CEM cells, above 100 µM. In addition, the IC90 in the data set with HCMV [2] amounted to 16 µM.

For the molecule `Nc1nc2c(ncn2C=C2CC2CO)c(=O)[nH]1` (stereo not drawn) [1 (B = guanine), Example 8, syn-N^9-(2-hydroxymethylcyclopropylidenemethyl)guanine], the IC50 in the data set on KB cells is above 100 µM; with HFF cells, above 100 µM; in the data set on HCMV [1], 2 µM; with HIV-1 (setting [5]), 1.3 µM; in the data set with CEM cells, above 100 µM. Besides, the “deaths in uninfected mice that received only drug” value in data set [3] is “No deaths were observed”. Further, it took 1.8 µM to reach the 90% level in the data set with HCMV [2] (IC90).

Turning to `COC(=O)[C@H](C)NP(=O)(OCC1CC1=Cn1cnc2c(N)ncnc21)Oc1ccccc1` (stereo partly drawn) [3 (B = adenine), Example 13, Methyl Phenylphosphoro-L-alaninate of syn-N^9-(2-Hydroxymethylcyclopropylidenemethyl)adenine], the IC50 with KB cells (KB cell growth, read-out: Cytotoxicity IC50 KB (growth)) was 0.5 µM; in the data set with HFF cells (stationary HFF cells, visual, read-out: Cytotoxicity IC50 HFF (visual)), 2.5 µM; in the data set on HSV-1 (BSC-1 cells) it was 2.5 µM; with HCMV [1] it was 0.14 µM; with HIV-1 (setting [5]) it was below 0.14 µM; with CEM cells (growing CEM cells, visual, read-out: Cytotoxicity IC50 CEM (visual)) it was 1.1 µM. The molecule further yielded an IC90 in the data set on HCMV [2] of 0.21 µM.

Regarding `Nc1nc2c(ncn2C=C2CC2CO)c(=O)[nH]1` (stereo not drawn) [S-1 (B = guanine), Example 22], the IC50 was above 100 µM in the data set with KB cells; above 100 µM in the data set with HFF cells; 45 µM with HSV-1 (Example 26); 2.5 µM with HCMV [1] (Example 26); above 100 µM in the data set with HIV-1 (setting [6]); above 100 µM with CEM cells.

Regarding `Nc1nc(O)c2ncn(COC(CO)CO)c2n1` [ganciclovir, reference compound], the “efficacy against MCMV mortality compared with compound 1 (B=guanin-N^9-yl)” value in data set [4] is given as “somewhat more effective”.

For `[N-]=[N+]=Nc1nc(N)nc2c1ncn2C=C1CC1CO` (stereo not drawn) [syn-2-Amino-6-azido-N^9-(2-hydroxymethyl-cyclopropylidene-methyl)purine], the IC50 was above 100 µM in the data set with KB cells; above 100 µM in the data set with HFF cells; above 100 µM in the data set with HSV-1 (Example 26); 41 µM with HCMV [1] (Example 26); above 100 µM with HIV-1 (setting [6]); above 100 µM in the data set on CEM cells. For the same molecule, the “activity against HCMV (in words)” value in the data set on HCMV [1] (racemic analogues, Example 26) is “good activity”.

Take `Nc1nc(NC2CC2)c2ncn(C=C3CC3CO)c2n1` (stereo not drawn) [syn-2-Amino-6-cyclopropylamino-N^9-(2-hydroxymethylcyclopropylidenemethyl)purine]: the IC50 in the data set on KB cells is above 100 µM; in the data set with HFF cells, above 100 µM; in the data set with HSV-1 (BSC-1 cells), 20 µM; in the data set with HCMV [1], 0.4 µM; in the data set with CEM cells it was above 100 µM. Further, the 90% effect level in the data set with HCMV [2] (IC90) was put at 1 µM.

For `Nc1nc(Cl)c2ncn(C=C3CC3CO)c2n1` (stereo not drawn) [syn-2-amino-6-chloro-N^9-(2-hydroxymethylcyclopropylidenemethyl)purine], the IC50 was above 100 µM with KB cells, above 100 µM in the data set with HFF cells, 40 µM in the data set on HSV-1 (BSC-1 cells) and 5 µM in the data set with HCMV [1]. The molecule further yielded an IC90 in the data set with HCMV [2] of 0.8 µM.
